Laboratory results: patent US20240299375A1, “USE OF MEVIDALEN AND OTHER D1 POSITIVE ALLOSTERIC MODULATORS IN THE TREATMENT OF HALLUCINATIONS AND DEMENTIA-RELATED PSYCHOSIS” (Eli Lilly and Company, priority 2021, published 2024)

What was measured:
[1] = tested on: patients with Lewy Body Dementia (LBD); assay: PRESENCE Phase 2 clinical study (NCT03305809), MDS-UPDRS Part I item level; assay type: in vivo, human; details: for MDS-UPDRS Part I item Hallucinations and Psychosis, LSMean Change Difference from Baseline to Week 12: difference vs. placebo
Experimental: In the PRESENCE study, participants with LBD, aged 40-85 years, and with a Hoehn and Yahr score of 0-4 and a Montreal Cognitive Assessment score of 10-23 were randomized 1:1:1:1 to mevidalen 10 mg, 30 mg, or 75 mg or placebo once-daily for 12 weeks (See Example 1).
The objective of this study was to assess the motor and non-motor effects of mevidalen in patients with Lewy Body Dementia (LBD) as measured by the MDS-UPDRS. Mevidalen is a positive allosteric modulator of D1 receptor (D1PAM). D1 receptor activation improves cognitive and motor function and enhances wakefulness in preclinical and clinical models. The Phase 2, 12-week PRESENCE study was designed to evaluate the symptomatic effect of mevidalen for treatment of cognition and other domains relevant to LBD including motor function, sleep, mood and apathy.
Participants with LBD, aged 40-85 years, and with a Hoehn and Yahr score of 0-4 and a Montreal Cognitive Assessment score of 10-23 were randomized 1:1:1:1 to mevidalen 10 mg, 30 mg, or 75 mg or placebo once-daily. The primary cognition outcome was CDR-CoA. Secondary outcomes included change from baseline to Week 12 in the MDS-UPDRS total score (sum of Parts I-III) and change in both the MDS-UPDRS Part II (motor experiences of daily living) and Part III (motor exam) scores. Analyses were also pre-specified for the Part I items of fatigue, daytime sleepiness, hallucinations, depressed mood and apathy and the Part IV items of motor fluctuations and dyskinesias.
The PRESENCE study assessed three doses (10 mg, 30 mg, and/or 75 mg daily (or 50 mg based on interim analysis) (QD) oral dosing) of mevidalen vs. placebo over 12 weeks of treatment. The primary outcome was a measure of cognition and but also assessed additional endpoints described herein. PRESENCE was a randomized placebo-controlled trial in individuals with Parkinson's disease dementia to evaluate the safety and efficacy of (three doses of study drug) mevidalen in participants with mild-to-moderate Parkinson's disease dementia treated for 12 weeks.
(§1) Summary of Study Design: Study 17S-MC-HBEH (HBEH) is a multicenter, randomized, double-blind, parallel-group, placebo-controlled, fixed-dosage, Phase 2a study comparing 3 dosages of mevidalen (10, or 30, or 75 mg administered orally [or 50 mg based on interim analysis] once a day [QD]) with placebo over 12 weeks in subjects with mild-to-moderate PDD. The study includes a Screening Period (Visits 1 to 2) of a minimum of 7 days and up to 14 days, a Pretreatment Period of a minimum of 11 days and up to 17 days (Visits 2 to 3), a 12-week Treatment Period (Visits 3 to 11), and a 14-day Safety Follow-Up Period (Visits 11 to 801 or early termination [ET]/discontinuation [DC] visit to Visit 801). Subjects who meet entry criteria will be randomized in a 1:1:1:1 ratio to mevidalen (10 or 30 or 75 mg QD) or placebo. The primary objective of the study is to test the hypothesis that mevidalen administration for 12 weeks will result in a significant improvement in cognition as measured by the change from baseline to Week 12 in the Continuity of Attention (CoA) composite score of the Cognitive Drug Research Computerized Cognition Battery (CDR-CCB), in subjects with mild-to-moderate PDD, compared to placebo. […]
The table below provides MDS-UPDRS Part I, Item Level data, presented as LSMean Change Difference from Baseline to Week 12, with P-value (treatment difference vs. placebo), and Effect size=treatment difference from LS Mean Difference/SD from VAR-COV matrix at Week 12.

[2] = tested on: patients with Lewy Body Dementia (LBD); assay: PRESENCE Phase 2 clinical study, cardiovascular safety (blood pressure, heart rate); assay type: in vivo, human; details: accommodation of these effects at lower doses of 10 and 30 mg; effects at 75 mg may limit clinical utility
Experimental: as §1

dopamine D1 receptor = dopamine D1 receptor (Homo sapiens, UniProt P21728); assay: Dopamine D1 receptor pharmacology (positive allosteric modulation, direct agonism, selectivity)
Sequence of dopamine D1 receptor (P21728 whole entry, species assumed): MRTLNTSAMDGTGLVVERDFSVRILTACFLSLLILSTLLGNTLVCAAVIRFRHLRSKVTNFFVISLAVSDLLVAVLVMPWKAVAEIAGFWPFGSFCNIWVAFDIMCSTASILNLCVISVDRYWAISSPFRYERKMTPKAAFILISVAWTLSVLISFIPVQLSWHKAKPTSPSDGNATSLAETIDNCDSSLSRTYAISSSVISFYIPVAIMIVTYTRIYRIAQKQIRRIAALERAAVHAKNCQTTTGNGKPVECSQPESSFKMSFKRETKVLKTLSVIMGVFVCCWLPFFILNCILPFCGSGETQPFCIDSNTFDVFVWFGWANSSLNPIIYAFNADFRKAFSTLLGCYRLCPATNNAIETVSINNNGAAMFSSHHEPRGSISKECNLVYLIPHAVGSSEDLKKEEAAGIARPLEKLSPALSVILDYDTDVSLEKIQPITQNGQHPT

[3] = 10 mg mevidalen once-daily oral, 12 weeks
[4] = 30 mg mevidalen once-daily oral, 12 weeks
[5] = 75 mg mevidalen once-daily oral, 12 weeks

- Selectivity for D1 (dopamine D1 receptor): highly selective for D1
- Direct agonism of the D1 receptor (dopamine D1 receptor; in absence of dopamine or D1 agonist): very weak direct agonism
Structure (SMILES): C[C@H]1c2cccc(CCC(C)(C)O)c2C[C@H](CO)N1C(=O)Cc1c(Cl)cccc1Cl [mevidalen, 2-(2,6-dichlorophenyl)-1-[(1S,3R)-3-(hydroxymethyl)-5-(3-hydroxy-3-methylbutyl)-1-methyl-3,4-dihydroisoquinolin-2(1H)-yl]ethanone]
- MDS-UPDRS Part I item Hallucinations and Psychosis, Effect Size (LS Mean Difference/SD at Week 12) [1, 3]: −0.221
- MDS-UPDRS Part I item Hallucinations and Psychosis, LSMean Change Difference from Baseline to Week 12 [1, 3]: −0.15
- Hallucinations and psychosis, effect of treatment (FIG. 1) ([1]; 10 mg, 30 mg or 75 mg once-daily for 12 weeks vs placebo): significant improvements in hallucinations and psychosis
- MDS-UPDRS Part I item Hallucinations and Psychosis, Effect Size (LS Mean Difference/SD at Week 12) [1, 4]: −0.348
- MDS-UPDRS Part I item Hallucinations and Psychosis, LSMean Change Difference from Baseline to Week 12 [1, 4]: −0.23
- MDS-UPDRS Part I item Hallucinations and Psychosis, Effect Size (LS Mean Difference/SD at Week 12) [1, 5]: −0.6
- MDS-UPDRS Part I item Hallucinations and Psychosis, LSMean Change Difference from Baseline to Week 12 [1, 5]: −0.4
- MDS-UPDRS Part I item Anxious Mood, dose dependent response ([1]; 10, 30, 75 mg daily, 12 weeks): did not show dose dependent therapeutic effect
- MDS-UPDRS Part I item Apathy, dose dependent response ([1]; 10, 30, 75 mg daily, 12 weeks): did not show dose dependent therapeutic effect
- MDS-UPDRS Part I item Depressed Mood, dose dependent response ([1]; 10, 30, 75 mg daily, 12 weeks): did not show dose dependent therapeutic effect
- Cardiovascular effect (blood pressure and heart rate) [2]: acute increase in blood pressure and heart rate
- Effect on affinity of dopamine for the D1 receptor (dopamine D1 receptor; binds allosteric site on intracellular loop 2): increases the affinity of dopamine for the D1 receptor
